Measured values taken from patent US20240239894A1, “THERAPEUTIC BINDING MOLECULES” (MedImmune Limited, priority 2020, published 2024).
Non-standard residues stand in square brackets, D forms with d. Residues, ends and D or L forms follow the SMILES beside them. *: point of attachment. Dolaproine = CO[C@@H]([C@@H]1CCCN1)[C@@H](C)C(=O)O; Dil = CC[C@H](C)[C@H](NC)[C@@H](CC(=O)O)OC; X1 = C[C@@H](N*)[C@@H](O)c1ccccc1; NMeV = CN[C@H](C(=O)O)C(C)C

Key:
[1] = test system: DLD1 BRCA2−/− cells; assay: 6-day cytotoxicity assay of warheads; format: cell-based
Description: (§1) MMAE=negative control, microtubule-inhibitor warhead.
(§2) Additionally, HR-deficiency increases sensitivity to the SG3932 warhead. […] Cell viability was reduced in both wild-type and BRCA2−/− cells when treated with the MMAE warhead.

[2] = test system: DLD1 wt cells; assay: 6-day cytotoxicity assay of warheads; format: cell-based; details: wild-type cells
Description: as §1, §2

## CC[C@H](C)[C@@H]([C@@H](CC(=O)N1CCC[C@H]1[C@H](OC)[C@@H](C)C(=O)N[C@H](C)[C@@H](O)c1ccccc1)OC)N(C)C(=O)[C@@H](NC(=O)[C@@H](NC)C(C)C)C(C)C [MMAE] (H-[NMeV]V[Dil][Dolaproine]-X1)
[1]
  cell viability: reduced
[2]
  cell viability: reduced
